Assay results published in a melting point compilation (Tetko et al.; mined from patent text by program, amines drawn as free bases though some values may be those of a salt).

Structure (SMILES)	melting point [°C]
Nc1ccn2c(=O)c(C(=O)O)ccc2c1	> 250
CCCCCCCCCCCCCCCCCC(=O)NCCOCCn1c(CCOC)nc2c(N)nc3ccccc3c21	80 to 83
Cn1cncc1C(c1ccc(Cl)cc1)c1ccc(N)c(C(=O)c2cccc(Cl)c2)c1 (stereo unspecified)	179
CC(C)n1nc(-c2ccc(O)cc2)c2cccc(C(F)(F)F)c21	156 to 157
C[C@@H](Oc1cncc(C(=O)Nc2ccc(C#N)cc2)c1)c1ccc(F)cc1	151 to 152
Nc1nc(N)nc(NC2CCCCC2)n1	151
CC1(C)NC(=O)N(c2ccc(F)c(C(F)(F)F)c2)C1=O	111 to 114
O=c1c(Cl)cc2nc3ccc(F)cc3sc-2c1Cl	256 to 258
N#Cc1c(N2CCOCC2)cccc1[N+](=O)[O-]	152 to 155
CC(=O)OCCCc1cc(C=C2SCN(C)C2=O)cc(CCCOC(C)=O)c1O	112 to 116
Nc1ccc(Cl)cc1C1=CCN(C/C=C/c2ccc(Cl)cc2)CC1	168 to 170
N#CNC(=NCCN)NC1CCCC(c2csc(NC(=N)N)n2)C1 (stereo unspecified)	203 to 205
COC1(OC)SC=C(C)NC1=O	86 to 88
CCN(CC)C(=O)C=Cc1ccc(C)c(C)c1	36.6
COCc1cnc2nc(N)nc(N)c2n1	248 to 251
C[C@]1(CN2CCN(C(=O)c3ccc(Cl)cc3)CC2)Cn2cc([N+](=O)[O-])nc2O1	173 to 174
CCCCCC(C)C(C)c1cc(O)c2c3c(c(=O)oc2c1)CSCC3 (stereo unspecified)	150 to 152
C1c2c(-c3nn[nH]n3)n[nH]c2[C@@H]2C[C@H]12	231
Cc1cc(Br)c(C)cc1Cl	60 to 64
CCOP(=O)(O)Cc1nc2nc[nH]c2c2nc(-c3ccc(C(C)(C)C)cc3)nn12	254 to 256
O=c1oc2ccccc2c(=O)n1CCCCCCCCCO	125 to 128

Structure (SMILES)	melting point [°C]
O=S1(=O)OC[C@H]2CCCN21	45 to 46
N#Cc1ccc(NC(=O)CN2CCC(Cc3ccc(F)cc3)CC2)cc1	113 to 116
COc1ccc(/C(C)=C/C=C/C(=O)O)cc1	174 to 177
Cc1cc(C)c2c(c1)C=C(/C=C/C=O)CO2	76 to 78
CCNC(=O)c1c(Cl)ccc(Br)c1[Si](C)(C)C	155 to 157
NC(=O)c1cncn1C(c1ccccc1)c1ccccc1	153
CC(=O)Nc1ccc(C#CCCN2CC=C(c3ccccc3)CC2)nc1	158 to 160
OC1=CC(=NNc2ccc(F)cc2)CCC1	175 to 176
CS(=O)(=O)c1ccc(C(=O)N[C@H]2CC[C@H](CCN3CCN(c4nccc5c4CCO5)CC3)CC2)s1	229
COc1ccc2c(c1)c(=O)n1nc(C#N)cc1n2C	316 to 320
C#CCNc1ccc([N+](=O)[O-])cc1[N+](=O)[O-]	151 to 152
O=C1N(N2CCOCC2)c2ccccc2C1(Cc1ccccn1)Cc1ccccn1	157 to 159
O=C(O)Cc1[nH]nc2c1CCCC2	155 to 156
Oc1ccc(Oc2cnc3ccccc3c2)cc1	250
N#CC1=C(c2ccccc2)Oc2ccccc2O1	85 to 86
CC(C)(C)CN1C(=O)C(=O)N(c2cccnc2)C1=S	111 to 113
O=C(NCC12CC3CC(CC(C3)C1)C2)c1cc(-c2cccnc2N2CCCC(C(=O)O)C2)ccc1Cl (stereo unspecified)	125 to 130
Nc1ccc2c3c(cccc13)C(=O)N(CCCCBr)C2=O	175 to 176
CC1C(=O)CCC2(C)C1CCC1C3CCC(=Cc4ccccc4Cl)C3(C)CCC12 (stereo unspecified)	205 to 208
O=C(Nc1cccc(S(=O)(=O)Nc2ccccc2)c1)NC1N=C(c2ccccc2F)c2ccccc2N(CC(=O)N2CC3CCC(CC3)C2)C1=O (racemic)	181 to 188
O=C(O)C1Oc2ccc(Cl)cc2C(c2ccccc2)(c2ccccc2)O1 (stereo unspecified)	226

Structure (SMILES)	melting point [°C]
Cn1c(C2CC2)nc2cc(C(=O)NC3CC3)c(NC(=O)c3cc(C(F)(F)F)nn3-c3ncccc3Cl)c(Cl)c21	233 to 235
CCn1cc(C(=O)NCc2ccc(Cl)cc2)c(=O)c2cc(C#CCCO)sc21	158 to 162
CC(=C1SC(=O)NC1=O)c1ccc(OCCOc2c(-c3ccc(Cl)cc3)n(C)c3ccccc3c2=O)cc1	238 to 240
CN1Cc2cccnc2N(c2cccc(C(F)(F)F)c2)C1=O	122 to 124
CSc1c(C)n(C)c2ccccc12	50 to 52
O=C(CBr)c1ccc(-c2ccc(F)cc2)cc1	102 to 103
COc1ccc(Oc2ccc(OC(=O)NC(C)CCCC(C)C)cc2)cc1 (stereo unspecified)	64 to 65
Fc1ccc(-n2nccc2-c2ccnc(NCc3ccccc3)c2)cc1	125 to 127
CN(C)c1ccc(CNc2ccc(Cl)c(Cl)c2)cc1	117
Cc1nn(-c2ccc(C(F)(F)F)cn2)cc1CCCOc1cc(CC(=O)O)n(C)n1	143 to 144
COc1ccc(OCCCN2CCC(C(O)(c3ccc(F)cc3)c3ccc(F)cc3)CC2)cc1	107 to 108
CC(CO)(Sc1cc2ccccc2[nH]1)c1ccccc1 (stereo unspecified)	126 to 127
N#Cc1nn(-c2c(Cl)cc(C(F)(F)F)cc2Cl)cc1C(=O)C(F)(F)F	124 to 125
O=c1nc(C2CC2)c2cc(-c3cccc(Cl)c3)ccc2[nH]1	189 to 190
CC(=O)NCCCC(=O)NCCCC(=O)c1ccc(Cl)cc1CCC(=O)O	108
Cc1noc(C(C)c2ccc(-c3ccccc3)c(F)c2)n1 (stereo unspecified)	55 to 56
COc1ccc(-n2c(-c3sc(Nc4ccc(Cl)cc4)nc3-c3ccccc3)nc3ccccc3c2=O)cc1	220 to 221
CCCCCCCCCCCCCCC(O)(CCCCCC(=O)O)CCCCCC(=O)O	79 to 80
CC(CCCC(O)(C(F)(F)F)C(F)(F)F)C1CCC2C3CC=C4CC(O)CC(O)C4(C)C3CCC12C (stereo unspecified)	201 to 202
NN1CCNC1=C[N+](=O)[O-]	159 to 160
Cn1nnnc1C(F)(F)C(O)(Cn1cncn1)c1ccc(F)cc1F (stereo unspecified)	160 to 165

Results, then the compound that gave them:

melting point [°C]	Structure (SMILES)
282 to 284	Cc1cc(C)c(Nc2nc(C)ncc2S(=O)(=O)c2ccc(-c3ncc[nH]3)cc2)c(C)c1
72 to 76	COc1ccc(S(=O)(=O)CC(O)(CS(=O)(=O)c2ccc(-c3ccccc3)cc2)C(=O)NO)cc1 (stereo unspecified)
89 to 92	Nc1nc2ccccc2c2c1ncn2CCCCNC(=O)Oc1cccc2ccccc12
170 to 174	COC1CN(S(=O)(=O)c2ccc(Cl)c(C(=O)O)c2)CCC1O (stereo unspecified)
92.5 to 93.5	CCOC(=O)Cc1ccc(NC(=O)C(C)C)cc1
118 to 119	COc1ccc2cc(C#CC(C)(C)O)ccc2c1
95 to 97	CCON1C(=O)c2ccccc2C1=O
140 to 141	CC(C)(C)OC(=O)N[C@@H](Cc1ccccc1)[C@H](C#N)OC(=O)c1ccc(-c2ccccn2)cc1
195 to 200	O=C1c2cc3ccccc3cc2C(=O)c2c(Oc3ccccc3)cccc21
159 to 161	COC1(c2cc(F)cc(Oc3nc(-c4ccccc4)c(-c4ccc(S(N)(=O)=O)cc4)o3)c2)CCOCC1
94 to 96	CC(O)(COc1ccc(S(=O)(=O)c2ccccc2)cc1)C(F)(F)F (stereo unspecified)
79 to 80	CCOC(=O)c1ccc2c3ccccc3n(Cc3ccccc3)c2c1C
59 to 62	COc1cc(C)c(C(=O)c2c(C(F)(F)F)ccnc2Cl)c(OC)c1OC
117 to 119	CCN(CC)C(=O)c1ccc2ccccc2c1-c1cccc(COC(C)(C)C)c1
116 to 120	CCC(Nc1cc(C)nc(Oc2c(C)cc(C)cc2C)c1C(=O)OC)C(C)O (stereo unspecified)
198	O=C(Nc1ccc(NC(=O)OCCCl)nc1)OCCCl
150 to 152	COC(=O)Nc1nc2ccc(S(=O)c3ccccc3)cn2c1Br (stereo unspecified)
167 to 171	C[C@@H](NS(=O)(=O)N1CCN(c2ccc(OCc3ccc4ccccc4c3)cc2)CC1)C(=O)O
198 to 199	COC(=O)c1cccc2c1c1c(n2Cc2ccccc2)CN(Cc2ccccc2)CC1=O

melting point [°C]	Structure (SMILES)
163	COc1ccc(-c2cn3ccc(C)cc3n2)cc1OC
93 to 95	Cc1ccc(COc2ncc(F)c(NC(=O)c3ccccc3)n2)cc1
76 to 77	CCCCCC(=O)N1c2cscc2C(=O)N(C)c2ccccc21
195 to 196	CCOC(=O)c1c(OC(C)=O)c2ccccc2c2nc3ccccc3nc12
139 to 141	CCN1C[C@@H](C(=O)O)N(C(=O)[C@H](C)CSC(=O)c2ccccc2)C1=O
148 to 150	COc1cc(OC)nc(NC(=O)NS(=O)(=O)Oc2ccccc2C(=O)OCCCl)n1
198 to 201	COc1cc(Nc2c(C#N)cnc3cc(-c4ccc(CNCCS(=O)(=O)c5ccccc5)cc4)ccc23)c(Cl)cc1Cl
127 to 128	CON=C(c1noc(C)n1)c1cc(Cl)ccc1OCc1ccc(Cl)cc1
160 to 161	COc1ccc(-c2c(/C=C/C(=O)Oc3ccc([N+](=O)[O-])cc3)ccc3cc(OC)ccc23)cc1
134	COc1ccc(C2CCCN(C(=O)C(F)(F)F)C2)cc1NC(=O)NOCc1ccccc1 (stereo unspecified)
155 to 156	COc1cc(OC)cc(-c2cc(=O)c3ccc(OCC(O)CNC(C)C)cc3o2)c1 (stereo unspecified)
93 to 94	CC(C)OC(=O)C(C(=O)NCc1ccccc1)=C1SCS1
144 to 148	COC(=O)C1=C(C)NC(C)=C(C(=O)OCOC(C)=O)C1c1cccc(Cl)c1Cl (stereo unspecified)
131 to 133	COc1ccc(C(O)(CN)Cc2ccccc2N)cc1OC (stereo unspecified)
275 to 277	COc1cc(OC)c2c(=O)[nH]c(-c3ccc(OC4CCN(C(C)=O)CC4)cc3)nc2c1
228	CNS(=O)(=O)c1cc2c(c(C(=O)NC3CCN(Cc4ccccc4)CC3)c1)OCCO2
131 to 132	COc1cccc2c1OC(C(=O)O)CO2 (stereo unspecified)
217 to 219	COc1cc(CC(=O)O)c(C(=O)O)cc1OC
158 to 160	COC(=O)NC(=N)N(C(=O)OC)c1c(Cc2ccccc2)c[nH]c1C(=O)OC
